Active and inactive are the calls of the source. No cut-off for these calls is given here.
Tests used:
[1] = Half life in Balb/C mouse brain at 30 mg/kg, IG measured upto 8 hrs by LC-MS analysis; format: ADME, organism-based; details: po
Mus musculus [2] = experiment: Neuroprotective activity in Sodium nitrite induced cognition impairement in C57BL/6 mouse model assessed as decrease in MAD level at 9.9 mg/kg, IG administered daily for 7 days; format: functional; details: time 7 day
[3] = Metal chelating activity assessed as compound-Cu2+ complex formation by measuring bathochromic shift at 301 to 345nm in the presence of CuCl2 by UV-Visible spectrophotometric analysis
Mus musculus [4] = experiment: Neuroprotective activity in Sodium nitrite induced cognition impairement in C57BL/6 mouse model assessed as increase in SOD activity at 9.9 mg/kg, IG administered daily for 7 days; format: functional; details: time 7 day
[5] = Tmax in Balb/C mouse brain at 30 mg/kg, IG measured upto 8 hrs by LC-MS analysis; format: ADME, organism-based; details: po
BV-2 [6] = experiment: Antineuroinflammatory activity in LPS-induced mouse BV-2 cells assessed as inhibition of TNF-alpha release preincubated for 30 mins followed by LPS stimulation and measured after 24 hrs; format: functional, cell-based; details: dose 0.5-10 µM, time 24.5 hrs
BV-2 [7] = experiment: Antineuroinflammatory activity in LPS-induced mouse BV-2 cells assessed as inhibition of ROS production at 10 uM preincubated for 30 mins followed by LPS stimulation and measured after 8 hrs by DCFH-DA staining based analysis; format: functional, cell-based; details: time 8.5 hrs
BV-2 [8] = experiment: Antineuroinflammatory activity in LPS-induced mouse BV-2 cells assessed as inhibition of IL-1 beta release preincubated for 30 mins followed by LPS stimulation and measured after 24 hrs; format: functional, cell-based; details: dose 0.5-10 µM, time 24.5 hrs
PC-12 = experiment: Neuroprotective activity against H2O2 induced rat PC12 cells assessed as increase in cell viability at 1 uM measured after 24 hrs by MTT assay relative to control; format: functional
Mus musculus [9] = experiment: Neuroprotective activity in Sodium nitrite induced cognition impairement in C57BL/6 mouse model assessed as reduction in number of error time at 1.1 to 9.9 mg/kg, IG administered daily for 7 days; format: functional, organism-based; details: dose 1.1-9.9 mg/kg, time 7.0 day
BV-2 [10] = experiment: Antineuroinflammatory activity in LPS-induced mouse BV-2 cells assessed as inhibition of ROS production preincubated for 30 mins followed by LPS stimulation and measured after 8 hrs by DCFH-DA staining based analysis; format: functional, cell-based; details: dose 2.5-10 µM, time 8.5 hrs
[11] = Metal chelating activity assessed as compound-Fe2+ complex formation by measuring hyperchromic shift in the presence of FeSO4 by UV-Visible spectrophotometric analysis
[12] = Cmax in Balb/C mouse brain at 30 mg/kg, IG measured upto 8 hrs by LC-MS analysis; format: ADME, organism-based; details: po
BV-2 [13] = experiment: Antineuroinflammatory activity in LPS-induced mouse BV-2 cells assessed as inhibition of NO release at 10 uM preincubated for 30 mins followed by LPS stimulation and measured after 24 hrs relative to control; format: functional; parameters: scale not given: the % may be the effect or the level left; details: time 24.5 hrs
[14] = Antioxidant activity assessed as trolox equivalent of ORAC radical scavenging activity by ORAC-FL assay relative to trolox; format: functional
Mus musculus [15] = experiment: Neuroprotective activity against Abeta42 induced cognition impairement in AD mouse model assessed as improvement in latency time at 1.1 to 9.9 mg/kg, IG administered daily for 7 days by passive avoidance test; format: functional, organism-based; details: dose 1.1-9.9 mg/kg, time 7.0 day
BV-2 [16] = experiment: Antineuroinflammatory activity in LPS-induced mouse BV-2 cells assessed as inhibition of IL-1 beta release at 2.5 uM preincubated for 30 mins followed by LPS stimulation and measured after 24 hrs relative to control; format: functional; parameters: scale not given: the % may be the effect or the level left; details: time 24.5 hrs
Mus musculus [17] = experiment: Neuroprotective activity against Abeta42 induced cognition impairement in AD mouse model assessed as alleviation of learning deficit administered daily as IG for 7 days by passive avoidance test; format: functional, organism-based; details: time 7.0 day
[18] = target: Amyloid-beta precursor protein (Homo sapiens) (UniProt P05067); experiment: Inhibition of Cu2+ induced amyloid beta (1 to 42)(unknown origin) fibrillation at 25 uM by ThT fluorescence assay relative to control
Sequence of Amyloid-beta precursor protein (Homo sapiens) (P05067 whole entry): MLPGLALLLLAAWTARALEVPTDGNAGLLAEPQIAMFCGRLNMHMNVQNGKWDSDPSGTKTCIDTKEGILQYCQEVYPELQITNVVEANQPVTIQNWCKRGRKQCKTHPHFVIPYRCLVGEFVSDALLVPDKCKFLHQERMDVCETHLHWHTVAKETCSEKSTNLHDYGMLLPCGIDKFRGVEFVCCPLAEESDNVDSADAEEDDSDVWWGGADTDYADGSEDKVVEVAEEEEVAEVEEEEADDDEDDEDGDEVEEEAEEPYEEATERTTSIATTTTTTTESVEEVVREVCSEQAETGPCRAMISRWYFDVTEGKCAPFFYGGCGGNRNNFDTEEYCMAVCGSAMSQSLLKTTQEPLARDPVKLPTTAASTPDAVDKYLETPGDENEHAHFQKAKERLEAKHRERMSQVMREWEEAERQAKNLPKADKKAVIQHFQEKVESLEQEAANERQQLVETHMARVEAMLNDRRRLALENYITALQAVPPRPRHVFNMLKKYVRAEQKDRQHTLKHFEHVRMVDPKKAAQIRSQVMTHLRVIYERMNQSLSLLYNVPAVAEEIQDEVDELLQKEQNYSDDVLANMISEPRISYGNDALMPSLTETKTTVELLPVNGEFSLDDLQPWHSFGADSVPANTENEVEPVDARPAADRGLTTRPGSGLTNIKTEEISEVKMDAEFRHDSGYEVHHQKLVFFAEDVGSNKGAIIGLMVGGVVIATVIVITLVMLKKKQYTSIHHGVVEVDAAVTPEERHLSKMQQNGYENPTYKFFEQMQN

Mus musculus [19] = experiment: Neuroprotective activity in Sodium nitrite induced cognition impairement in C57BL/6 mouse model assessed as decrease in MAD activity at 5.0 mg/kg, IG administered daily for 7 days; format: functional, organism-based; details: time 7.0 day
Mus musculus [20] = experiment: Neuroprotective activity in Sodium nitrite induced cognition impairement in C57BL/6 mouse model assessed as improvement in step-down latency time at 1.1 to 9.9 mg/kg, IG administered daily for 7 days; format: functional, organism-based; details: dose 1.1-9.9 mg/kg, time 7.0 day
[21] = Tmax in Balb/C mouse plasma at 30 mg/kg, IG measured upto 8 hrs by LC-MS analysis; format: ADME, organism-based; details: po
[22] = Metal chelating activity assessed as compound-Al3+ complex formation by measuring hyperchromic shift in the presence of AlCl3 by UV-Visible spectrophotometric analysis
[23] = Metal chelating activity assessed as compound-Cu2+ complex formation by measuring hyperchromic shift in the presence of CuCl2 by UV-Visible spectrophotometric analysis
[24] = Metal chelating activity assessed as compound-Fe2+ complex formation by measuring bathochromic shift at 301 to 335nm in the presence of FeSO4 by UV-Visible spectrophotometric analysis
BV-2 [25] = experiment: Antineuroinflammatory activity in LPS-induced mouse BV-2 cells assessed as inhibition of IL-1 beta release at 10 uM preincubated for 30 mins followed by LPS stimulation and measured after 24 hrs relative to control; format: functional; parameters: scale not given: the % may be the effect or the level left; details: time 24.5 hrs
HT-22 [26] = experiment: Neuroprotective activity against amyloid beta (1 to 42)-induced cell injury in mouse HT-22 cells assessed as reversal of reduction in cell numbers at 2.5 to 10 uM measured after 24 hrs by MTT assay; format: functional, cell-based; details: dose 2.5-10 µM
BV-2 [27] = experiment: Antineuroinflammatory activity in LPS-induced mouse BV-2 cells assessed as inhibition of TNF-alpha release at 0.5 uM preincubated for 30 mins followed by LPS stimulation and measured after 24 hrs relative to control; format: functional; parameters: scale not given: the % may be the effect or the level left; details: time 24.5 hrs
[28] = target: Amyloid-beta precursor protein (Homo sapiens) (UniProt P05067); experiment: Disaggregation of self-induced amyloid beta (1 to 42) (unknown origin) fibrils at 25 uM by ThT fluorescence assay relative to control
[29] = Metal chelating activity assessed as compound-Al3+ complex formation by measuring bathochromic shift at 301 to 330nm in the presence of AlCl3 by UV-Visible spectrophotometric analysis
[30] = target: Amyloid-beta precursor protein (Homo sapiens) (UniProt P05067); experiment: Inhibition of amyloid beta (1 to 42) (unknown origin) self induced aggregation at 25 uM by ThT fluorescence assay relative to control
Mus musculus [31] = experiment: Neuroprotective activity in Sodium nitrite induced cognition impairement in C57BL/6 mouse model assessed as increase in SOD activity at 5.0 mg/kg, IG administered daily for 7 days; format: functional, organism-based; details: time 7.0 day
HT-22 [32] = experiment: Neuroprotective activity against amyloid beta (1 to 42)-induced injury in mouse HT-22 cells assessed as increase in cell viability at 2.5 uM incubated for 24 hrs by MTT assay relative to control; format: functional
[33] = Metal chelating activity assessed as compound-Cu2+ complex formation at stoichiometric ratio of 1:1 in presence of CuCl2 by UV-Vis spectrometry
[34] = target: Amyloid-beta precursor protein (Homo sapiens) (UniProt P05067); experiment: Inhibition of amyloid beta (1 to 42) (unknown origin) fibrillation assessed as reduction in Cu2+ induced thick fibrils at 25 uM measured after 24 hrs by TEM analysis
[35] = Metal chelating activity assessed as compound-Zn2+ complex formation by measuring hyperchromic shift in the presence of ZnCl2 by UV-Visible spectrophotometric analysis

half-life [1]: 58.2 min
Activity [3]: Active
Tmax [5]: 30 min
Activity [11]: Active
Cmax [12]: 337 ng/mL
inhibition [18]: 35.4%
Tmax [21]: 15 min
Activity [22]: Active
Activity [23]: Active
Activity [24]: Active
Activity [28]: 42.5%
Activity [29]: Active
inhibition [30]: 90.2%
Activity [33]: Active
inhibition [34]: Active
Activity [35]: Active
SMILES: CCCCCC1OC(=O)c2c1cc(OC)c(O)c2O (stereo unspecified)
Activity (Mus musculus [2]): 2.8 nmol/mg
Activity (Mus musculus [4]): 193.1 U/mg
Activity (BV-2 [6]): Dose-Dependent Effect
Activity (BV-2 [7]): Active
Activity (BV-2 [8]): Dose-Dependent Effect
Activity (PC-12): 68.1%
Activity (Mus musculus [9]): Active
Activity (BV-2 [10]): Dose-Dependent Effect
Activity (BV-2 [13]): 77.3%
Activity [14]: 2.2
Activity (Mus musculus [15]): Active
Activity (BV-2 [16]): 49.2%
Activity (Mus musculus [17]): Dose-Dependent Effect
Activity (Mus musculus [19]): inactive
Activity (Mus musculus [20]): Active
Activity (BV-2 [25]): 62.9%
Activity (HT-22 [26]): Active
Activity (BV-2 [27]): 20%
Activity (Mus musculus [31]): inactive
Activity (HT-22 [32]): 76.3%
